Data on eight molecules can be found in patent publication US9169241B2, “Quinolinyloxyphenylsulfonamides” (Max-Planck-Gesellschaft Zur Forderung der Wissenschaften …, priority 2009, dated 2015).

For data set [1], the system named is Hs578T. The experiment in a line: Matrigel outgrowth assay/branching assay. It is filed as cell-based. Particulars: Homo sapiens, Hs-578T; HS578T cell line; Table Ib; read-out: Total branching inhibition in Matrigel HS578T. How it is done:
The Matrigel outgrowth assay is based on the ability of tumor cell to penetrate a solid gel of extracellular matrix proteins mimicking the metastasis formation in vivo. While cells with low invasive potential appear as roundish cell or cell cluster, cells with high invasive potential penetrate the Matrigel and form polymorphic structures. In detail 65 μl of Matrigel matrix (Matrigel™ Matrix, BD Biosciences, Bedford, Mass., USA) with a concentration of 3 mg/ml have been polymerized in 96 well plates for 1 h at 37° C. Subsequently 5000 cell/well were seeded into each well containing cell culture medium and indicated compound with concentrations of 3.125 μM, 1.56 μM and 0.78 μM as well as DMSO control. After 48 h, 72 h and 96 h images of cell were taken on an inverted microscope using a 5× objective (Zeiss Axiovert S100 microscope Carl Zeiss UK, Welwyn Garden City, UK). Only compound concentrations were total branching inhibition was evident were accounted as positive. Method was used as previously described, with some modifications (Thompson E W, et al. Association of increased basement membrane invasiveness with absence of estrogen receptor and expression of vimentin in human breast cancer cell lines. J Cell Physiol 1992; 150:534-44).

The test system of data set [2] is Hs578T. The data set can be described thus: Wound healing migration assay. It is filed as cell-based. As to conditions: Homo sapiens, Hs-578T; HS578T cell line; Table Ib. As for the experimental part: This method mimics cell migration during wound healing in vivo. The basic steps involve creating a “wound” in a cell monolayer, capturing the images at the beginning and at regular intervals during cell migration to close the wound, and comparing the images to quantify the migration rate of the cells. In detail, 150000 cell/24 well have been seeded and allowed to form a monolayer overnight. Subsequently a “wound” or “scratch” has been performed with a 1000 μl pipette tip. The STDV of wound size is normally below 10% at time point t0. The assay was stopped by fixation with 0.05% Crystal violet/20% methanol when control scratches were closed. The assay was terminated between 48 h and 72 h depending on the migration potential of the indicated cell line. The “wounds” were visualized with a Zeiss Axiovert S100 microscope (Carl Zeiss UK, Welwyn Garden City, UK). The tested compounds were used at 12.5 μM, 6.25, 3.125 μM and DMSO control. IC50 values have been calculated as 50% wound size in between t0 and t48 or t72.

In data set [3] the test system is Hs578T. The data set can be described thus: Cell vitality assay (ATP assay, CellTiter-Glo). It is filed as cell-based. As to conditions: Homo sapiens, Hs-578T; HS578T cell line, 72 h; Table Ib; read-out: IC50 ATP-Assay HS578T after 72 h. As for the experimental part:
The CellTiter-Glo® Luminescent Cell Viability Assay (Promega Corporation. Madison, Wis., USA) is method a determining the number of viable cells in culture based on quantification of the ATP being present which is an indicator of metabolically active cells was used according to manufacturers protocol, In detail the assay was performed in a 96 well format were 1000 cells/well were incubated with indicated compound at concentration of 12.5 μM, 6.25 μM, 3.125 μM, 1.56 μM, 0.78 μM, 0.39 μM, 0.195 μM as well as DMSO control for 72 h in 100 μl cell culture medium. IC50 values were calculated as 50% of ATP amount compared to DMSO control.
Protocol for the CellTiter-Glo® Luminescent Cell Viability Assay • 1. Prepare opaque-walled multiwell plates with mammalian cells in culture medium, 100 μl per well for 96-well plates • 2. Prepare control wells containing medium without cells to obtain a value for background luminescence. • 3. Add the compound to be tested to experimental wells, and incubate according to culture protocol. • 4. Equilibrate the plate and its contents at room temperature for approximately 30 minutes. • 5. Add a volume of CellTiter-Glo® Reagent (Promega Corporation. Madison, Wis.) equal to the volume of cell culture medium present in each well. • 6. Mix contents for 2 minutes on an orbital shaker to induce cell lysis. • 7. Allow the plate to incubate at room temperature for 10 minutes to stabilize luminescent signal. • 8. Record luminescence on Microplate Luminometer LB96V (Berthold Tchnologies, Bad Wildbad, Germany). An integration time of 0.1 and 1 second per well
A general note: Cellular ATP, detected with luciferase, serves as a proxy for viable cell number.

The molecule `CCn1cc(S(=O)(=O)Nc2cccc(Oc3ccnc4cc(OCCCN5CCN(C)CC5)c(OC)cc34)c2)cn1` [Example 140, 1-Ethyl-1H-pyrazole-4-sulfonic acid (3-{6-methoxy-7-[3-(4-methyl-piperazin-1-yl)-propoxy]-quinolin-4-yloxy}-phenyl)-amide] registered a melting point of 87 to 90 °C. In the data set with Hs578T [1], the IC50 was 10 to 25 µM. In the data set with Hs578T [2], the IC50 was in the range of 12.5 to 50 µM. Further, the IC50 in the data set on Hs578T [3] lay within 12.5 to 50 µM.
On to `COc1cc2c(Oc3cccc(NS(=O)(=O)c4c[nH]c(C)n4)c3)ccnc2cc1OCCCN1CCN(C)CC1` [Example 141, 2-Methyl-1H-imidazole-4-sulfonic acid (3-{6-methoxy-7-[3-(4-methyl-piperazin-1-yl)-propoxy]-quinolin-4-yloxy}-phenyl)-amide], for which the melting point fell in the range of 118 to 120 °C. The IC50 with Hs578T [1] lay in the range of 10 to 25 µM. Also, the IC50 in the data set with Hs578T [2] fell in the range of 12.5 to 50 µM. For the same molecule, the IC50 in the data set on Hs578T [3] is 12.5 to 50 µM.
Turning to `COc1cc2c(Oc3cccc(NS(=O)(=O)C4CC4)c3)ccnc2cc1OCCCN1CCN(C)CC1` [Example 142, Cyclopropanesulfonic acid (3-{6-methoxy-7-[3-(4-methyl-piperazin-1-yl)-propoxy]-quinolin-4-yloxy}-phenyl)-amide], the melting point lay within 150 to 152 °C. Further, the IC50 in the data set with Hs578T [1] is 10 to 25 µM. For the same molecule, the IC50 with Hs578T [2] was in the range of 12.5 to 50 µM. Further, in the data set with Hs578T [3], the IC50 is 12.5 to 50 µM.
As to `COc1cc2c(Oc3cccc(NS(=O)(=O)/C=C/c4ccccc4)c3)ccnc2cc1OCCCN1CCN(C)CC1` [Example 143, 2-Phenyl-ethenesulfonic acid (3-{6-methoxy-7-[3-(4-methyl-piperazin-1-yl)-propoxy]-quinolin-4-yloxy}-phenyl)-amide], the melting point lay in the range of 85 to 87 °C. Also, the IC50 in the data set with Hs578T [1] is ≤ 10 µM. Besides, the IC50 in the data set with Hs578T [2] was ≤ 12.5 µM. The IC50 in the data set with Hs578T [3] is ≤ 12.5 µM.
In the case of `COc1cc2c(Oc3ccc(NS(=O)(=O)c4c[nH]c(C)n4)cc3F)ccnc2cc1OCCCN1CCCCC1C` (centres unmarked) [Example 149, 2-Methyl-1H-imidazole-4-sulfonic acid (3-fluoro-4-{6-methoxy-7-[3-(2-methyl-piperidin-1-yl)-propoxy]-quinolin-4-yloxy}-phenyl)-amide], the melting point fell in the range of 219 to 220 °C. Also, the IC50 in the data set with Hs578T [1] fell in the range of 10 to 25 µM. In the data set on Hs578T [2], the IC50 lay within 12.5 to 50 µM. Besides, in the data set on Hs578T [3], the IC50 lay in the range of 12.5 to 50 µM.
In turn, `COc1cc2c(Oc3ccc(NS(=O)(=O)c4ccn(C)n4)cc3F)ccnc2cc1OCCCN1CCCCC1C` (centres unmarked) [Example 150, 1-Methyl-1H-pyrazole-3-sulfonic acid (3-fluoro-4-{6-methoxy-7-[3-(2-methyl-piperidin-1-yl)-propoxy]-quinolin-4-yloxy}-phenyl)-amide] came in with a melting point of 175 to 176 °C. For the same molecule, in the data set with Hs578T [1], the IC50 is 10 to 25 µM. In the data set with Hs578T [2], this molecule returned an IC50 of 12.5 to 50 µM. Also, the IC50 in the data set on Hs578T [3] is ≤ 12.5 µM.
`COc1cc2c(Oc3ccc(NS(=O)(=O)c4c(C)nn(C)c4C)cc3F)ccnc2cc1OCCCN1CCCCC1` [Example 159, 1,3,5-Trimethyl-1H-pyrazole-4-sulfonic acid {3-fluoro-4-[6-methoxy-7-(3-piperidin-1-yl-propoxy)-quinolin-4-yloxy]-phenyl}-amide]: the melting point is 96 to 98 °C. Moreover, in the data set on Hs578T [1], the IC50 lay within 10 to 25 µM. Also, the IC50 in the data set with Hs578T [2] is 12.5 to 50 µM. Also, in the data set with Hs578T [3], the IC50 was ≤ 12.5 µM.
`COc1cc2c(Oc3ccc(NS(=O)(=O)c4c(C)nn(C)c4C)cc3F)ccnc2cc1OCCCN1CCC(C)CC1` [Example 160, 1,3,5-Trimethyl-1H-pyrazole-4-sulfonic acid (3-fluoro-4-{6-methoxy-7-[3-(4-methyl-piperidin-1-yl)-propoxy]-quinolin-4-yloxy}-phenyl)-amide] yielded a melting point of 88 to 90 °C. Further, in the data set with Hs578T [1], the IC50 lay in the range of 10 to 25 µM. Further, in the data set on Hs578T [2], the IC50 is ≤ 12.5 µM. Besides, in the data set on Hs578T [3], the IC50 was ≤ 12.5 µM.

A word on the melting point: it is the temperature, or range, at which the solid turns liquid.
